From the NIST ThermoML archive (doi:10.1016/j.fluid.2012.12.036)

Settings: Crystal; for vapor or sublimation pressure: Calculated from knudsen effusion weight loss; for Normal melting temperature: visual observation

Brc1c2ccccc2cc2ccccc12 [9-bromoanthracene]
Settings	Normal melting temperature [°C]	vapor or sublimation pressure [kPa]
–	101.00	–
314.8 K	–	5.1e-06
319.8 K	–	1.06e-05
324.8 K	–	1.71e-05
329.8 K	–	3.26e-05
334.9 K	–	5.32e-05
339.9 K	–	9.3e-05
345 K	–	0.000158
350 K	–	0.000261
355 K	–	0.000418

Brc1ccc2cc3ccccc3cc2c1 [anthracene, 2-bromo-]
Settings	Normal melting temperature [°C]	vapor or sublimation pressure [kPa]
–	220.70	–
334.8 K	–	5.41e-06
339.8 K	–	9.21e-06
344.9 K	–	1.56e-05
350 K	–	2.61e-05
355 K	–	4.15e-05
360.1 K	–	7.18e-05
365.2 K	–	0.000114
370.4 K	–	0.000184
375.3 K	–	0.000287
380.4 K	–	0.000437
385.4 K	–	0.000652
390.4 K	–	0.000887

c1ccc2cc3ccccc3cc2c1 [anthracene]
Settings	Normal melting temperature [°C]	vapor or sublimation pressure [kPa]
–	216.90	–
322.9 K	–	1.82e-05
328 K	–	2.97e-05
333 K	–	5.58e-05
338.1 K	–	8.91e-05
343.1 K	–	0.000146
348.2 K	–	0.000233
